# Data from ChEMBL document CHEMBL1130488, “1,4-Diaryl-2-oxo-1,2-dihydro-quinoline-3-carboxylic acids as endothelin receptor antagonists” (Bioorg Med Chem Lett, 1997).
# Biological target: T1, Endothelin-1 receptor (Rattus norvegicus, UniProt P26684)
# T1 sequence (P26684 whole entry): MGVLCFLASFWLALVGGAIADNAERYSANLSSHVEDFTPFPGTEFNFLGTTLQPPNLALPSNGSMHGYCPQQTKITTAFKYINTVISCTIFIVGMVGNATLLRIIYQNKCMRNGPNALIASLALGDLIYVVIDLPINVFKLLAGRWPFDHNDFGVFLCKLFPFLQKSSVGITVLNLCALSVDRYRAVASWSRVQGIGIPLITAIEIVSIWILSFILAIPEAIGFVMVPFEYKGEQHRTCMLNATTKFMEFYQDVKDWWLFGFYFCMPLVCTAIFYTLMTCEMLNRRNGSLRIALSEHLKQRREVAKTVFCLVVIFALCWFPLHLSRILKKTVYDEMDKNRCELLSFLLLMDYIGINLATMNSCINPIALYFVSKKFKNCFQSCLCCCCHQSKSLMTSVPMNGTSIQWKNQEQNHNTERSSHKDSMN
# Assay: Functional antagonism against ETA receptor in rat aortic rings expressed as pA2 value
# Conditions: read-out: pA2 (converted)
row,Kb,SMILES
1,0.398 µM,CCOc1ccc2c(c1)c(-c1ccc3c(c1)OCO3)c(C(=O)O)n2Cc1ccc(OC)cc1
2,6.31 µM,CCOc1ccc2c(c1)c(-c1ccc(OC)cc1)c(C(=O)O)c(=O)n2Cc1cc(OC)ccc1OC

# Biological target: T1, Endothelin-1 receptor
# Assay: Inhibition of [125I]ET1 binding to rat aorta membranes(ETA)
# Format: cell membranes, Membrane
# Conditions: not given
row,SMILES,IC50
1,COc1ccc(Cn2c(=O)c(C(=O)O)c(-c3ccc4c(c3)OCO4)c3ccccc32)cc1,2.4 µM
2,CCOc1ccc2c(c1)c(-c1ccc(OC)cc1OC)c(C(=O)O)c(=O)n2Cc1ccccc1OC,1.2 µM
3,COc1ccccc1Cn1c(=O)c(C(=O)O)c(-c2ccc3c(c2)OCO3)c2ccccc21,2 µM
4,COc1ccccc1Cn1c(=O)c(C(=O)O)c(-c2ccc3c(c2)OCO3)c2c(OC)c(OC)ccc21,3.3 µM
5,COc1ccccc1Cn1c(=O)c(CC(=O)O)c(-c2ccc3c(c2)OCO3)c2ccccc21,> 10 µM

# Next, values leading:
row,IC50,SMILES
1,1.3 µM,CCOc1ccc2c(c1)c(-c1ccc(OC)cc1)c(C(=O)O)c(=O)n2Cc1ccccc1OC
2,> 10 µM,O=C(O)c1c(-c2ccc3c(c2)OCO3)c2ccccc2n(Cc2ccccc2)c1=O
3,0.38 µM,CCOc1ccc2c(c1)c(-c1ccc3c(c1)OCO3)c(C(=O)O)c(=O)n2Cc1ccccc1OC
4,130 µM,CCOc1ccc2c(c1)c(-c1ccc3c(c1)OCO3)c(C(=O)O)n2Cc1ccc(OC)cc1
5,2.6 µM,O=C(O)c1c(-c2ccc3c(c2)OCO3)c2ccccc2n(Cc2ccc3c(c2)OCO3)c1=O
6,1.5 µM,CCc1ccc2c(c1)c(-c1ccc3c(c1)OCO3)c(C(=O)O)c(=O)n2Cc1ccccc1OC
7,> 10 µM,COc1cccc(Cn2c(=O)c(C(=O)O)c(-c3ccc4c(c3)OCO4)c3ccccc32)c1
8,0.26 µM,CCOc1ccc2c(c1)c(-c1ccc(OC)cc1)c(C(=O)O)c(=O)n2Cc1cc(OC)ccc1OC
